Experimental data from ChEMBL document CHEMBL4004852, “Pharmacophore Mapping of Thienopyrimidine-Based Monophosphonate (ThP-MP) Inhibitors of the Human Farnesyl Pyrophosphate Synthase” (J Med Chem, 2017).

Target: T1, Farnesyl pyrophosphate synthase (Homo sapiens, UniProt P14324)
T1 sequence (P14324 whole entry): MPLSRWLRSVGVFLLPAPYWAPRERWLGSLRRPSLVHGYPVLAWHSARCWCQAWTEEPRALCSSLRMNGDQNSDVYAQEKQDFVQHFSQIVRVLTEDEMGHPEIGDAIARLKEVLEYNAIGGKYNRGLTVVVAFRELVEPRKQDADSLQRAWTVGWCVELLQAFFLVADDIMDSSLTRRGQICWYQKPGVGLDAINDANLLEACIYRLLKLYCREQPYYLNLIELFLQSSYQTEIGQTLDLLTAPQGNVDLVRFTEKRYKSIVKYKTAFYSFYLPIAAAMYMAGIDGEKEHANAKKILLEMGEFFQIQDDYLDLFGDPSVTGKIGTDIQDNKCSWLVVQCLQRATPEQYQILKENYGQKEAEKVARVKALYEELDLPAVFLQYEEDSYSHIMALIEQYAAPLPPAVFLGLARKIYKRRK
Test: Inhibition of N-terminal His-tagged human recombinant FPPS expressed in Escherichia coli BL21 (DE3) using GPP and [3H]-IPP as substrate preincubated for 10 mins before substrate addition measured after 8 mins by liquid scintillation counting

Row | IC50 | SMILES
1 | 860 nM | Cc1ccc(-c2cc3c(NC(Cc4cccc(F)c4)P(=O)(O)O)ncnc3s2)cc1Cl (stereo unspecified)
2 | 3700 nM | Cc1ccc(-c2cc3c(N[C@@H](Cc4ccccc4)C(=O)NP(=O)(O)O)ncnc3s2)cc1
3 | 2600 nM | Cc1ccc(-c2sc3ncnc(NC(Cc4ccccc4)P(=O)(O)O)c3c2C)cc1 (stereo unspecified)
4 | 1600 nM | COc1cc(C)c(F)cc1-c1cc2c(NC(Cc3ccccc3)P(=O)(O)O)ncnc2s1 (stereo unspecified)
5 | 5000 nM | Cc1ccc(-c2cc3c(NCP(=O)(O)O)ncnc3s2)cc1
6 | 4000 nM | Cc1ccc(-c2cc3c(N[C@@H](Cc4ccccc4)P(=O)(O)O)ncnc3s2)cc1
7 | 2300 nM | Cc1ccc(-c2cc3c(NC(Cc4ccccc4)P(=O)(O)O)ncnc3s2)cc1Cl (stereo unspecified)
8 | 8400 nM | COc1cc(C)c(Cl)cc1-c1cc2c(NC(c3ccccc3)P(=O)(O)O)ncnc2s1 (stereo unspecified)
9 | > 100000 nM | O=P(O)(O)CNc1ncnc2sccc12

Continued, compound first:

Row | SMILES | IC50
10 | COc1cc(C)c(F)cc1-c1cc2c(NCP(=O)(O)O)ncnc2s1 | 4600 nM
11 | Cc1ccc(-c2cc3c(NC(Cc4cccc(F)c4)P(=O)(O)O)ncnc3s2)cc1F (stereo unspecified) | 1500 nM
12 | Cc1ccc(-c2cc3c(NC(c4ccccc4)P(=O)(O)O)ncnc3s2)cc1 (stereo unspecified) | 4800 nM
13 | Cc1ccc(-c2sc3ncnc4c3c2COP(=O)(O)CCC4)cc1 | ≥ 100000 nM
14 | Cc1ccc(-c2sc3ncnc(NCP(=O)(O)O)c3c2C)cc1 | 10000 nM
15 | Cc1ccc(-c2cc3c(NC(c4ccccc4)P(=O)(O)O)ncnc3s2)cc1Cl (stereo unspecified) | 1600 nM
16 | Cc1ccc(-c2cc3c(N[C@H](Cc4ccccc4)P(=O)(O)O)ncnc3s2)cc1 | 1000 nM
17 | Cc1ccc(-c2sc3ncncc3c2CP(=O)(O)O)cc1 | ≥ 100000 nM
18 | Cc1ccc(-c2cc3c(NC(Cc4cccc(F)c4)P(=O)(O)O)ncnc3s2)cc1 (stereo unspecified) | 1100 nM
19 | COc1cc(C)c(F)cc1-c1cc2c(NC(Cc3cccc(F)c3)P(=O)(O)O)ncnc2s1 (stereo unspecified) | 870 nM
20 | Cc1ccc(-c2cc3c(NC(CC4CCCCC4)P(=O)(O)O)ncnc3s2)cc1 (stereo unspecified) | 1600 nM
21 | Cc1ccc(-c2cc3c(NC(Cc4ccccc4)P(=O)(O)O)ncnc3s2)cc1 (stereo unspecified) | 1400 nM
22 | COc1cc(C)c(Cl)cc1-c1cc2c(NC(Cc3ccccc3)P(=O)(O)O)ncnc2s1 (stereo unspecified) | 4600 nM
23 | Cc1ccc(-c2cc3c(NC(c4ccc5c(c4)CCO5)P(=O)(O)O)ncnc3s2)cc1 (stereo unspecified) | 3000 nM
24 | COc1cc(C)c(Cl)cc1-c1cc2c(NCP(=O)(O)O)ncnc2s1 | 8800 nM
25 | COc1ccc(F)cc1-c1cc2c(NC(Cc3cccc(F)c3)P(=O)(O)O)ncnc2s1 (stereo unspecified) | 1000 nM
26 | Cc1ccc(-c2cc3c(NC(CC4CCC4)P(=O)(O)O)ncnc3s2)cc1 (stereo unspecified) | 2800 nM
